Columns and labels:
Nalm6 cells = experiment: Serial killing assay, T-cell (CD4, CD8) and Nalm6 cell counts by flow cytometry; format: cell-based, human; settings: for persistence of T-cells (CD4 and CD8 counts) / serial killing assessed by Nalm6 cells (flow cytometry): E:T ratio of 1:1, dose titration; for impact on T-cell counts and Nalm6 cell counts: E:T ratio of 1:3, dose titration
Procedure: T-cell counts (CD4 and CD8) were assessed by flow cytometry.
Nalm6 cells were assessed by flow cytometry.
T-cell counts (CD4 and CD8) and Nalm6 cells were assessed by flow cytometry.

JAK1 = JAK1 (Homo sapiens, UniProt P23458); experiment: JAK kinase inhibition biochemical assay (Kinase-Glo Plus luminescence), JAK1; settings: for IC50: 10 μM ATP
JAK1, sequence (P23458 whole entry): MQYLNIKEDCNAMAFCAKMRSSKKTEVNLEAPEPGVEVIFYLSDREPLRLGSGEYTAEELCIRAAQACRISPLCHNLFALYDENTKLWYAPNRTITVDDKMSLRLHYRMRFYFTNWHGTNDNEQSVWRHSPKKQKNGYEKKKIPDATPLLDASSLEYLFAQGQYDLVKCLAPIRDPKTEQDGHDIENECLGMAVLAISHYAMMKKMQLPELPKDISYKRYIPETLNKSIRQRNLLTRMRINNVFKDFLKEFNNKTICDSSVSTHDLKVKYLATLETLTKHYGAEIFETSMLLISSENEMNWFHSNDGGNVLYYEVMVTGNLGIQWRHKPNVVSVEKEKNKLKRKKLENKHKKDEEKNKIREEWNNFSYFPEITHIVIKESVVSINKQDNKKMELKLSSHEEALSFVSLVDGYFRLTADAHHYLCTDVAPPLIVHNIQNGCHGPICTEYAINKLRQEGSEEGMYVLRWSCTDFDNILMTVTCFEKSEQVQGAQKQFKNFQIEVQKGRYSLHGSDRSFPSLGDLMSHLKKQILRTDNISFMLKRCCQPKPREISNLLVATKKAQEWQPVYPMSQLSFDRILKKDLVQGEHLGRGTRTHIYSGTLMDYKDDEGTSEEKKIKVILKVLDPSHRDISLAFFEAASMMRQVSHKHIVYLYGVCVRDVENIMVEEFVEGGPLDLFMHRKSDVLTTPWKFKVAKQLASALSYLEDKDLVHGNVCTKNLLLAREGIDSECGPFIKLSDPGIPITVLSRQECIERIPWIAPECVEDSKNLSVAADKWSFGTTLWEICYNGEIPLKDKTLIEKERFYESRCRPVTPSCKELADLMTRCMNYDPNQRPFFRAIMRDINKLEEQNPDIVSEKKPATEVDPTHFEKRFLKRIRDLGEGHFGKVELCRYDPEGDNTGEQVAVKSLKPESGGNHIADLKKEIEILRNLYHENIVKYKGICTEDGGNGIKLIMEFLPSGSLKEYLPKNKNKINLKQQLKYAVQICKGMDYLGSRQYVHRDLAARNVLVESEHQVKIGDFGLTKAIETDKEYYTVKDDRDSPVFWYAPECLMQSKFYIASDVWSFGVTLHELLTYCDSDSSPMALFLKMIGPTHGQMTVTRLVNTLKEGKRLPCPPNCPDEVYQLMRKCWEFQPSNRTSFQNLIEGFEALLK
Procedure: (§1) JAK kinase inhibition in vitro biochemical assays were performed using Kinase-Glo Plus luminescence kinase assay kit (Promega). Kinase activity was measured by quantitating the amount of ATP remaining in solution following a kinase reaction. Luminescent signal from the assay was correlated with the amount of ATP present and was inversely correlated with the amount of kinase activity. Compounds were diluted in 10% DMSO and 5 μl of the dilution were added to a 50 μl reaction so that the final concentration of DMSO was 1% in all of the reactions. […] All enzymatic reactions were conducted at 30° C. for 45 minutes. The 50 μl reaction mixture contained 40 mM Tris, pH 7.4, 10 mM MgCl2, 0.1 mg/ml BSA, 1 mM DTT, 10 μM ATP, Kinase substrate and the enzyme. After the enzymatic reaction, 50 μl of Kinase-Glo Plus Luminescence kinase assay solution (Promega) were added to each reaction and incubated in the plate for 15 minutes at room temperature. Luminescence signal was measured using a Bio-Tek Synergy 2 microplate reader. Kinase activity was performed in duplicate at each concentration and data were analyzed using Graphpad Prism. The difference between luminescence intensities in the absence of Kinase (Lut) and in the presence of Kinase (Luc) was defined as 100% activity (Lut−Luc). Using luminescence signal (Lu) in the presence of the compound, % activity was calculated as: % activity={Lut−Lu)/(Lut−Luc)}×100%, where Lu=the luminescence intensity in the presence of compound.

[1] = test system: NALM6.GFP.LUC.CD19 target cells
Procedure: The percent cytotoxicity to NALM6.GFP.LUC.CD19 target cells was measured by luciferase detection at each round.
In one embodiment, a serial killing assay is a combination of cell killing and how long it takes for CAR T cells to get exhausted under repeated stimulation. In one embodiment, a serial killing assay is a surrogate measure for CAR T cell persistence in vivo.

[2] = test system: monocyte-derived macrophages; experiment: Macrophage differentiation and M1/M2 polarization (surface markers by flow cytometry); format: cell-based, human; settings: for CD209 surface expression in M2 polarized macrophage cultures: compared to normal M2 polarization culture conditions; for skewing of macrophage phenotype amidst M2 polarizing conditions (M1 markers CD38 and HLA-DR): separate experiment
Procedure: Monocytes were prepared from healthy donor PBMCs by negative selection for CD14+ monocytes using MACS (these cryopreserved monocytes provided by […], Alameda, CA) at >95% purity. Monocytes were differentiated into macrophages (M0) using traditional methods. In brief, 1×10^6 monocytes were plated into 12-well plate wells in a total volume of 2 mL macrophage culture media (MCM) (ImmunoCult™-SF Macrophage medium, Stem Cell Technologies) containing 50 ng/ml M-CSF and cultured for 6 days at 37° C./5% CO2. On day 2 of differentiation, cultures were replenished with fresh media and M-CSF. On day 6, a portion of the wells containing differentiated macrophages were replenished with 2 ml of fresh MCM containing 50 ng/ml M-CSF, 100 ng/ml LPS, 20 ng/ml IFNg and cultured for another 48 hours to polarize the macrophage to an M1 macrophage phenotype. Also on day 6, another portion of the wells containing differentiated macrophages were replenished with 2 ml of fresh R10 containing 50 ng/ml M-CSF and 20 ng/ml IL-4 and cultured for another 48 hours to polarize the macrophages to M2 macrophage phenotype. On day 8, all putative polarized macrophages were assessed for M1 and M2-specific surface markers using relevant M1/M2 immunophenotyping panels and flow cytometry. The cell surface markers used to assess monocytes, M0, M1 and M2 macrophage phenotypes included CD14, CD32, CD38, CD80, CD86, CD68, CD163, CD200R1, CD204, CD206, CD209, and HLA-DR.

macrophage = experiment: Macrophage polarization, M1/M2 phenotypic markers by flow cytometry; format: cell-based
JAK3 = target: T1, JAK3 (Homo sapiens, UniProt P52333); experiment: JAK kinase inhibition biochemical assay (Kinase-Glo Plus luminescence), JAK3
T1 sequence (P52333 1-1124): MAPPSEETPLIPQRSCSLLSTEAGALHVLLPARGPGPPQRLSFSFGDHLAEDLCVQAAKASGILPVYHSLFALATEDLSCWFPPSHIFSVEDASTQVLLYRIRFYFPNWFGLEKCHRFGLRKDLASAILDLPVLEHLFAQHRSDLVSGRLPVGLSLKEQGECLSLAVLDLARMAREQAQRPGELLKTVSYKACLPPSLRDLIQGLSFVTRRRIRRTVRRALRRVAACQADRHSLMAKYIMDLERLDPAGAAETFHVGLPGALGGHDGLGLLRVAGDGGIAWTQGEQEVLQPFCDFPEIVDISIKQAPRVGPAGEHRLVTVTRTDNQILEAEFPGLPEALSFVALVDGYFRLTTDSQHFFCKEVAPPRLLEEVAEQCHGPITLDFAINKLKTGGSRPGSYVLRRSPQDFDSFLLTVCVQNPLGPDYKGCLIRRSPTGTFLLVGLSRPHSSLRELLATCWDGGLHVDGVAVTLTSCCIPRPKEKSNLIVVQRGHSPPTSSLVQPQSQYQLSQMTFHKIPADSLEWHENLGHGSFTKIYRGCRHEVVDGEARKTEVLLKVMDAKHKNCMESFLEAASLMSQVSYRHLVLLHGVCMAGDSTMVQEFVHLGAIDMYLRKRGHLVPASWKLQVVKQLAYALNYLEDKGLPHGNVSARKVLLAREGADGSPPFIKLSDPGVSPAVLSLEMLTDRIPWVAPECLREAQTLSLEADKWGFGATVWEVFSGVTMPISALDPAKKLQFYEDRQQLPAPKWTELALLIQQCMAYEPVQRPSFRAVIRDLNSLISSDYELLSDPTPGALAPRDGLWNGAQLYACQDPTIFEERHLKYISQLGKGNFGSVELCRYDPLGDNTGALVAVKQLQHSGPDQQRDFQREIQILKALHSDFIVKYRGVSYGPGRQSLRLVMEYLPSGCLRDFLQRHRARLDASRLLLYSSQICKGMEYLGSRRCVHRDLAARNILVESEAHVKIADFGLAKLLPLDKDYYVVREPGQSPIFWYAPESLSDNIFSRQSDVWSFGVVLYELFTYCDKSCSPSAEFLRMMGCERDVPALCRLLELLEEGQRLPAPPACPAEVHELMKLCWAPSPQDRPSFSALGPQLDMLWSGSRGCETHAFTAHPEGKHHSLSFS
Procedure: as §1, with “The 50 μl reaction mixture contained 40 mM Tris, pH 7.4, 10 mM MgCl2, 0.1 mg/ml BSA, 1 mM DTT, 10 μM ATP, Kinase substrate and the enzyme.” left out

Structure (SMILES)	persistence of T-cells (CD4 and CD8 counts) (Nalm6 cells)	serial killing assessed by Nalm6 cells (flow cytometry) (Nalm6 cells)	impact on T-cell counts and Nalm6 cell counts (Nalm6 cells)	IC50 (JAK1) [nM]	CD209 surface expression in M2 polarized macrophage cultures ([2]; 10 μM)	skewing of macrophage phenotype amidst M2 polarizing conditions (M1 markers CD38 and HLA-DR) [2]	other results
Nc1nc2cccc(-c3ccc(CN4CCS(=O)(=O)CC4)cc3)n2n1 [GS-829845]	Improved persistence	enhance serial killing in a dose-dependent manner	not impacted	448			less potency than parent compound filgotinib (JAK1): about 10 fold
C[C@@H]1C[C@H]2[C@@H]3CCC4=CC(=O)C=C[C@]4(C)[C@@]3(F)[C@@H](O)C[C@]2(C)[C@@]1(O)C(=O)CO [dexamethasone]							impact on CAR-T serial killing (percent cytotoxicity) [1]: differential impacts
O=C(Nc1nc2cccc(-c3ccc(CN4CCS(=O)(=O)CC4)cc3)n2n1)C1CC1 [filgotinib]	Improved persistence	enhance serial killing in a dose-dependent manner	not impacted		No reduction	skewed macrophages away from M2 towards M1 phenotype	inhibition of an M2 polarized phenotype ([2]; 10 μM, compared to no drug/normal M2 polarization culture conditions): stronger inhibition of an M2 polarized phenotype than Tofacitinib; influence on inhibiting M2 polarization by period of use ([2]; 10 μM, during 6-day differentiation versus only during M2 polarization): stronger influence on inhibiting M2 polarization when used during the 6-day macrophage differentiation; inhibiting the formation of an M2 polarized phenotype ([2]; 10 μM, used during both macrophage differentiation and M2 polarization): even stronger; macrophage polarization (macrophage): promotes polarization of macrophages from M2 to M1 macrophages; activity against JAK3 (JAK3; biochemical assay): limited activity
N#CCC1(n2cc(-c3ncnc4[nH]ccc34)cn2)CN(C2CCN(C(=O)c3ccnc(C(F)(F)F)c3F)CC2)C1 [itacitinib]				13			IC50 (JAK3; 10 μM ATP): 921 nM
C[C@@H]1CCN(C(=O)CC#N)C[C@@H]1N(C)c1ncnc2[nH]ccc12 [tofacitinib]					No reduction	skewed macrophages away from M2 towards M1 phenotype	

From patent US12252701B2, “Chimeric antigen receptor T cell therapy” (KITE PHARMA, INC., priority 2020, dated 2025)
